Here are results for five compounds from patent US9493468B2, “Antifungal 5,6-dihydro-4H-pyrrolo[1,2-a][1,4]benzo-diazepines and 6H-pyrrolo[1,2-a][1,4]benzodiazepines substituted with heterocyclic derivatives” (Janssen Pharmaceutica NV, priority 2011, dated 2016).

Data set [1] concerns Trichophyton mentagrophytes. Put plainly: Antifungal activity in vitro, resazurin growth inhibition: Trichophyton mentagrophytes (B70554). It counts as cell-based. The note with it: read-out: Inf. G: Trichophyton mentagrophytes B70554, pIC50 (converted). In short, it runs like this: (§1)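 Resazurin conversion to fluorescent resorufin (ex 550/em 590 nm) served as the growth readout. Compounds spanned 2- or 4-fold serial dilutions with 64 μM top in-test concentration; inoculum 10^3 cfu per well in MOPS-buffered RPMI-1640 (pH 7.0, 2% glucose). Incubation species-dependent, dermatophytes at 27° C. for ≥1 week.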
(Resazurin is reduced to fluorescent resorufin, in cell work by metabolically active cells.)

The subject of a further data set is Rhizomucor miehei. Put plainly: Antifungal activity in vitro, resazurin growth inhibition: Rhizomucor miehei (IHEM13391). Particulars: read-out: Inf. K: Rhizomucor miehei IHEM13391, pIC50 (converted). It counts as cell-based. The method in brief: as §1
A further data set has as its system Candida parapsilosis. The experiment in a line: Antifungal activity in vitro, resazurin growth inhibition: Candida parapsilosis (B66126). Particulars: Lodderomyces parapsilosis, read-out: Inf. D: Candida parapsilosis B66126, pIC50 (converted). Type of data set: cell-based. In short, it runs like this:
as §1

Another data set concerns Scedosporium apiospermum. Put plainly: Antifungal activity in vitro, resazurin growth inhibition: Scedosporium apiospermum (IHEM3817). Type of data set: cell-based. Particulars: read-out: Inf. H: Scedosporium apiospermum IHEM3817, pIC50 (converted). The method in brief: as §1
Another data set concerns Sporothrix schenkii. Put plainly: Antifungal activity in vitro, resazurin growth inhibition: Sporothrix schenkii (B62482). It counts as cell-based. Particulars: read-out: Inf. A: Sporothrix schenkii B62482, pIC50 (converted). In short, it runs like this: as §1
A further data set relates to Scedosporium prolificans. The experiment in a line: Antifungal activity in vitro, resazurin growth inhibition: Scedosporium prolificans (IHEM21157). Type of data set: cell-based. Particulars: Lomentospora prolificans, read-out: Inf. I: Scedosporium prolificans IHEM21157, pIC50 (converted). In short, it runs like this:
as §1

For a further data set, the system named is Trichophyton rubrum. Put plainly: Antifungal activity in vitro, resazurin growth inhibition: Trichophyton rubrum (B68183). Type of data set: cell-based. Particulars: read-out: Inf. C: Trichophyton rubrum B68183, pIC50 (converted). The method in brief: as §1
For the next data set, the system named is Rhizopus oryzae. Put plainly: Antifungal activity in vitro, resazurin growth inhibition: Rhizopus oryzae (IHEM5223). Type of data set: cell-based. Particulars: Rhizopus arrhizus, read-out: Inf. J: Rhizopus oryzae IHEM5223, pIC50 (converted). The method in brief:
as §1

The next data set has as its system Microsporum canis. The experiment in a line: Antifungal activity in vitro, resazurin growth inhibition: Microsporum canis (B68128). Type of data set: cell-based. Particulars: read-out: Inf. B: Microsporum canis B68128, pIC50 (converted). In short, it runs like this:
as §1

The next data set deals with Aspergillus fumigatus. Put plainly: Antifungal activity in vitro, resazurin growth inhibition: Aspergillus fumigatus (B42928). Type of data set: cell-based. The note with it: read-out: Inf. E: Aspergillus fumigatus B42928, pIC50 (converted). The method in brief:
as §1

For a further data set, the system named is Cryptococcus neoformans. Put plainly: Antifungal activity in vitro, resazurin growth inhibition: Cryptococcus neoformans (B66663). It counts as cell-based. Particulars: read-out: Inf. F: Cryptococcus neoformans B66663, pIC50 (converted). In short, it runs like this:
as §1

Molecules are shown by their SMILES.

In turn, `Clc1cccc2c1CN=C(c1ccc3occc3c1)c1cccn1-2` [Compound 8] had a melting point of 163.9 to 164.1 °C. Besides, the IC50 in [1] was 0.178 µM. In addition, in the data set with Rhizomucor miehei, the IC50 is 44.7 µM. Moreover, in the data set with Candida parapsilosis, the IC50 is 0.794 µM. Besides, the IC50 in the data set on Scedosporium apiospermum is 10.2 µM. Also, the IC50 with Sporothrix schenkii is 14.1 µM. Also, the IC50 with Scedosporium prolificans is 0.437 µM. For the same compound, the IC50 in the data set on Trichophyton rubrum is 0.0389 µM. Further, in the data set with Rhizopus oryzae, the IC50 is over 15.8 µM. In the data set with Microsporum canis, the IC50 is 0.427 µM. In the data set with Aspergillus fumigatus, the IC50 is 0.49 µM. Moreover, the IC50 with Cryptococcus neoformans is 4.27 µM.
`Cc1cccc2cc(C3=NCc4c(Cl)cccc4-n4cccc43)oc12` [Compound 7] registered a melting point of 175.2 to 177.3 °C. In data set [1], the IC50 is 0.245 µM. Also, the IC50 in the data set with Rhizomucor miehei was 7.08 µM. Also, in the data set on Candida parapsilosis, the IC50 was 9.77 µM. In addition, the IC50 with Scedosporium apiospermum is 0.513 µM. Moreover, the IC50 with Sporothrix schenkii is 2.75 µM. For the same compound, the IC50 in the data set with Scedosporium prolificans was 0.214 µM. Further, the IC50 in the data set with Trichophyton rubrum was 0.0646 µM. In addition, in the data set with Rhizopus oryzae, the IC50 is over 64.6 µM. Moreover, the IC50 in the data set with Microsporum canis is 0.174 µM. Besides, the IC50 in the data set on Aspergillus fumigatus is 0.302 µM. Further, the IC50 with Cryptococcus neoformans was 0.759 µM.
For the compound `Cc1cccc2c1CNC(c1cc3ccccc3s1)c1cccn1-2.Cl` (stereo not drawn) [Compound 1], the melting point was 242.4 to 247.7 °C. For the same compound, in data set [1], the IC50 is 0.204 µM. For the same compound, the IC50 in the data set on Rhizomucor miehei was over 64.6 µM. In addition, in the data set on Candida parapsilosis, the IC50 is 45.7 µM. Besides, the IC50 with Scedosporium apiospermum was over 64.6 µM. The IC50 with Sporothrix schenkii was 3.02 µM. For the same compound, the IC50 in the data set on Scedosporium prolificans was 1.82 µM. Further, the IC50 with Trichophyton rubrum is 0.0676 µM. Moreover, the IC50 in the data set with Rhizopus oryzae was over 64.6 µM. In addition, the IC50 with Microsporum canis was 0.447 µM. In addition, the IC50 in the data set on Aspergillus fumigatus was 2 µM. The IC50 with Cryptococcus neoformans is over 64.6 µM.
Compound `FC(F)(F)c1cc(C2=NCc3c(Cl)cccc3-n3cccc32)ccn1` [Compound 3] registered a melting point of 158.2 to 160.6 °C. Further, in data set [1], the IC50 was 0.229 µM. Further, the IC50 in the data set with Rhizomucor miehei was over 64.6 µM. In the data set with Candida parapsilosis, the IC50 is over 64.6 µM. Besides, the IC50 with Scedosporium apiospermum was 2.14 µM. Moreover, in the data set with Sporothrix schenkii, the IC50 is over 64.6 µM. In addition, in the data set on Scedosporium prolificans, the IC50 was 3.02 µM. Moreover, the IC50 with Trichophyton rubrum was 0.0427 µM. For the same compound, the IC50 in the data set on Rhizopus oryzae was over 64.6 µM. Moreover, the IC50 in the data set on Microsporum canis was 0.126 µM. The IC50 with Aspergillus fumigatus was 1.35 µM. In addition, the IC50 in the data set on Cryptococcus neoformans was over 64.6 µM.
The compound `Clc1cccc2c1-n1cccc1C(c1cc3ccccc3o1)=NC2` [Compound 5] gave a melting point of 159.9 to 160.8 °C. Further, the IC50 in [1] was 0.107 µM. For the same compound, in the data set on Rhizomucor miehei, the IC50 was 7.94 µM. Moreover, in the data set on Candida parapsilosis, the IC50 is over 64.6 µM. The IC50 in the data set with Scedosporium apiospermum was 6.03 µM. For the same compound, the IC50 in the data set with Sporothrix schenkii is 0.661 µM. For the same compound, the IC50 with Scedosporium prolificans was 0.309 µM. Moreover, the IC50 in the data set with Trichophyton rubrum was 0.0692 µM. Further, in the data set on Rhizopus oryzae, the IC50 is over 64.6 µM. For the same compound, the IC50 in the data set with Microsporum canis is 0.316 µM. In addition, the IC50 in the data set on Aspergillus fumigatus was 2.69 µM. In addition, the IC50 in the data set with Cryptococcus neoformans is 3.55 µM.

In general, melting point refers to the temperature, or range, at which the solid turns liquid.
